# Measurements reported in patent US20170131285A1, “METHODS AND COMPOSITIONS FOR DIAGNOSING, MONITORING AND TREATING CANCER” (INSERM (Institut National de la Sante et de la Recherche …, priority 2014, published 2017).
# Where no end group is shown, it is not given here.
# Tests used:
# [1] = Toxicity observed in treated animals; assay type: in vivo; details: applicant's studies and bio-distribution studies
# MSC2 cells = assay: MSC2 proliferation (RTCA-DP, BrdU); assay type: cell-based; details: exosomes from B16F10, A8 16 μM and 32 μM
# Method: FIG. 9: TDE and A8 effects on MSC2 and MDSC proliferation. A) Dynamic monitoring of in vitro MSC2 cell proliferation using the RTCA-DP system (Real-Time Cell Analyzer). MSC2 were incubated or not for 11 h with exosomes (from B16F10) in the absence or presence of A8 (16 μM and 32 μM). Cell index values were measured every 30 seconds (n=3). B) MSC2 were incubated or not for 24 h with exosomes (from B16F10) in the absence or presence of A8 (16 μM). Then, cells were labelled with BrdU and incorporation was determined by flow cytometry (n=3). C) MDSC were treated with exosomes (from B16F10) in the absence or presence of A8 ([…]) for 24 hours and then analyzed for proliferation by Cellometer-mini. *p<0.05.
# MSC2 cells proliferation were analyzed by to different techniques. First, MSC2 (1·10^4) were seeded onto 16-well plates with medium containing 10% FBS and incubated for 34 hours. […] Into each well of the micro-electronic sensor transendothelial electric resistance (TER) was measured by xCELLigence real time cell analyzer DP system (Roche). TER was measured every 30 s and then normalized to the initial value. […] MDSC proliferation was analyzed by cell counting. MDSC cells (1·10^6) from spleen of naive mice (see MDSC isolation section) were treated or not with exosomes (from B16F10) in the absence or presence of A8 (16 μM) for 24 hours and then analyzed for viability by Cellometer-mini (Ozyme).
# [2] = after systemic administration; cited from earlier work
# B16F10 tumors = assay: B16F10 melanoma tumor model in C57/BL6 mice; assay type: in vivo, mouse
# Method: FIG. 5: A8 anti-tumor effect in mice is associated to MDSC and an immune anti-tumor response. (A) Mice were sc injected with B16F10 cells (5×10^4). On day 4, when tumor size was about 0.9 mm^3, animals were treated every two days until the end of the experiment with A0 or A8 (3 mg/kg dissolved in PBS, i.p injection). On day 5, half the animals were treated with cisplatin as a single dose (CDDP, i.p injection, 5 mg/kg). At day 18, the percentage of Gr1^+ CD11b^+ cells in the spleen collected from the different groups of mice was analyzed by flow cytometry (6 animals per group). As a MDCS negative control (Ctl) we used animals with no tumor cells injected. Right panels, a representative immunoblot of pSTAT3 in the MDSC (Gr1^+ CD11b^+ cells) isolated from the spleen of control animals (A0/PBS) or A8 and CDDP-treated animals (A8/CDDP). 14-3-3 is used as a loading control. (B) Analysis of tumor growth in the animals described above. Tumor size was measured every two days (6 animals per group). The white symbols represent the tumors from animals treated with cisplatin. (C) HSP70-exosomes isolated from B16F10 cells treated or not with cisplatin (CDDP, 25 μM) were determined by flow cytometry. Data represent the percentage of MFI+/−SD (n=3); *, p<0.05. (D) Association curves of HSP70-exosomes present in tumor-bearing mice sera treated or not with cisplatin (5 mg/kg). For the biolayer interferometry, biotinylated A8 was immobilized on streptavidin sensor tips. Curves represent mean values of triplicate measurements for each concentration (for each curve, the blood of 5 mice per group was pooled).
# Exponentially growing B16F10 were harvested and resuspended in an RPMI medium without FBS. In vivo studies were performed in wild-type C57/BL6 mice (Charles River). B16F10 cells (5·10^4) were injected s.c. into the right flank Tumor volumes were evaluated every 2 days. Mice were treated with a control peptide aptamer A0 (3 mg/kg) or the HSP70 aptamer A8 (3 mg/kg) and half mice were treated with cisplatin (CDDP, […]). The animals were treated according to the guidelines of the Ministère de la Recherche et de la Technologie, France. All experiments were approved by the Comité d'Ethique de l'Université de Bourgogne.
# MDSC cell isolation and analysis: Single-cell suspensions were prepared from spleens, and red cells were removed using ammonium chloride lysis buffer. Gr-1+ cells were isolated from spleens of different group of tumor-bearing mice or naive mice by labeling the cells with PE Cy7 Ab to Gr-1, then using magnetic PE Cy7 beads and LS MACS columns (Miltenyi Biotec). For extracellular staining of immune markers, single-cell suspensions were prepared. We incubated 1·10^6 freshly prepared cells with fluorochrome-coupled CD11b antibody (eBioscience). All events were acquired by a BD Bioscience LSR-II device and analyzed with FlowJo (Tree Star).
# Animals were killed 18 days after cell injection. The site of tumor cell injection was resected and snap-frozen in liquid nitrogen. An immunohistochemical study of tumor-infiltrating inflammatory cells was performed on acetone-fixed 5 μm cryostat sections.
# Next, we tested whether A8 was also able to block the immunosuppressive effect of MDSC in an in vivo cancer model. We performed subcutaneous injection at day 0 of B16F10 cells or media as a control in C57/BL6 mice. When tumor size reached about 0.9 mm^3 ([…]), mice were treated i.p. with a control peptide aptamer (A0) or A8 every two days until the end of the experiment. When indicated, half of the animals received cisplatin (CDDP, […], i.p.) as a single dose. Tumor growth was measured every two days. After 18 days, we analyzed the percentage of MDSC present in mice spleen (6 animals per group) by FACS using the specific markers Gr1^+ and CD11b^+ (FIG. 5A). […]
sequence,measurement,setting,value
"SPWPRPTY [Aptamer A8, SPWPRPTY]","toxicity in the animals, notably cardiac or hepatic",[1],neither our studies nor those done for the bio-distribution of A8 indicate any evident toxicity
same,TDE-induced proliferation of MSC2,MSC2 cells,blocked
same,biodistribution (localization of the peptide),[2],localizes mainly in the tumor area
same,"intra-tumor infiltration of immune cells (CD3+, CD11c+, CD11b+, F4/80+)",B16F10 tumors; B16F10 model,intra-tumor infiltration of immune cells
same,anti-cancer properties of cisplatin,"B16F10 tumors; B16F10 model, A8 added to cisplatin",strong increase
same,percentage of MDSC (Gr1+ CD11b+) in spleen,"B16F10 tumors; B16F10 tumor-bearing C57/BL6 mice, day 18, A0 or A8 3 mg/kg i.p. every two days, cisplatin single i.p. dose, 6 animals per group",6+/−0.7%
same,activity of spleen MDSC measured by phosphorylated STAT3,"B16F10 tumors; after cisplatin treatment, immunoblot of Gr1+ CD11b+ cells",affected their activity
same,tumor growth / tumor progression,B16F10 tumors; tumor-bearing mice,inhibits tumor progression
